# Experimental data: the NIST ThermoML archive (doi:10.1016/j.jct.2013.08.030)
# Numbers after ± are expanded uncertainties.
# Test: activity coefficient (dimensionless); of the first substance listed, at infinite dilution; xn = mol fraction of the nth substance listed
# Settings: 101 kPa, Liquid, Chromatography, x1 = 0
SMILES,activity coefficient (318.15 K),activity coefficient (328.15 K),activity coefficient (338.15 K),activity coefficient (348.15 K),activity coefficient (358.15 K),activity coefficient (368.15 K)
"CCC(C)(C)C [2,2-dimethylbutane] + CCCC[N+]1(C)CCOCC1.N#C[C-](C#N)C#N",56.7 ± 3.9,49.8 ± 3.4,44.5 ± 3,40.9 ± 2.8,37.7 ± 2.6,34.8 ± 2.4
CCCO [propan-1-ol] + CCCC[N+]1(C)CCOCC1.N#C[C-](C#N)C#N,1.62 ± 0.11,1.52 ± 0.1,1.43 ± 0.09,1.35 ± 0.09,1.29 ± 0.08,1.23 ± 0.08
"Cc1ccc(C)cc1 [1,4-dimethylbenzene] + CCCC[N+]1(C)CCOCC1.N#C[C-](C#N)C#N",3.49 ± 0.24,3.52 ± 0.24,3.54 ± 0.24,3.57 ± 0.24,3.59 ± 0.24,3.63 ± 0.25
C#CCCCCCC [1-octyne] + CCCC[N+]1(C)CCOCC1.N#C[C-](C#N)C#N,12.8 ± 0.9,12.6 ± 0.9,12.4 ± 0.8,12.2 ± 0.8,12 ± 0.8,11.8 ± 0.8
"Cc1cccc(C)c1 [1,3-dimethylbenzene] + CCCC[N+]1(C)CCOCC1.N#C[C-](C#N)C#N",3.54 ± 0.24,3.56 ± 0.24,3.61 ± 0.25,3.61 ± 0.25,3.62 ± 0.25,3.62 ± 0.25
CC(C)CO [2-methyl-1-propanol] + CCCC[N+]1(C)CCOCC1.N#C[C-](C#N)C#N,2.19 ± 0.15,2.03 ± 0.14,1.87 ± 0.13,1.74 ± 0.12,1.65 ± 0.11,1.56 ± 0.1
CC#N [acetonitrile] + CCCC[N+]1(C)CCOCC1.N#C[C-](C#N)C#N,0.617 ± 0.043,0.62 ± 0.043,0.624 ± 0.043,0.624 ± 0.043,0.629 ± 0.043,0.63 ± 0.044
"CC(C)CC(C)(C)C [2,2,4-trimethylpentane] + CCCC[N+]1(C)CCOCC1.N#C[C-](C#N)C#N",103 ± 7,93.4 ± 6.4,84.2 ± 5.8,76.9 ± 5.3,70.8 ± 4.9,64.5 ± 4.4
CCCC=O [butanal] + CCCC[N+]1(C)CCOCC1.N#C[C-](C#N)C#N,1.2 ± 0.08,1.24 ± 0.08,1.26 ± 0.08,1.3 ± 0.08,1.33 ± 0.09,1.35 ± 0.09
C#CCCCCC [1-heptyne] + CCCC[N+]1(C)CCOCC1.N#C[C-](C#N)C#N,8.28 ± 0.56,8.26 ± 0.56,8.2 ± 0.56,8.2 ± 0.56,8.13 ± 0.55,8.05 ± 0.55
CCCCO [butan-1-ol] + CCCC[N+]1(C)CCOCC1.N#C[C-](C#N)C#N,2.18 ± 0.15,2.04 ± 0.14,1.91 ± 0.13,1.79 ± 0.12,1.7 ± 0.11,1.61 ± 0.11
C=CCCCCCCCC [1-decene] + CCCC[N+]1(C)CCOCC1.N#C[C-](C#N)C#N,118 ± 8,110 ± 8,101 ± 7,94.5 ± 6.5,87.8 ± 6,81.4 ± 5.6
C=CCCCCC [1-heptene] + CCCC[N+]1(C)CCOCC1.N#C[C-](C#N)C#N,34.1 ± 2.3,32 ± 2.2,30.2 ± 2.1,28.7 ± 2,27.2 ± 1.9,25.7 ± 1.8
CCOC(C)=O [ethyl acetate] + CCCC[N+]1(C)CCOCC1.N#C[C-](C#N)C#N,1.88 ± 0.13,1.9 ± 0.13,1.92 ± 0.13,1.93 ± 0.13,1.96 ± 0.13,1.98 ± 0.13
C1=CCCCC1 [cyclohexene] + CCCC[N+]1(C)CCOCC1.N#C[C-](C#N)C#N,9.44 ± 0.64,9.08 ± 0.62,8.71 ± 0.59,8.46 ± 0.58,8.16 ± 0.56,7.92 ± 0.54
CC(C)O [propan-2-ol] + CCCC[N+]1(C)CCOCC1.N#C[C-](C#N)C#N,1.71 ± 0.11,1.59 ± 0.11,1.5 ± 0.1,1.4 ± 0.09,1.33 ± 0.09,1.25 ± 0.08
C=Cc1ccccc1 [styrene] + CCCC[N+]1(C)CCOCC1.N#C[C-](C#N)C#N,1.82 ± 0.12,1.86 ± 0.13,1.9 ± 0.13,1.93 ± 0.13,1.96 ± 0.13,1.99 ± 0.14
CCCCCC [hexane] + CCCC[N+]1(C)CCOCC1.N#C[C-](C#N)C#N,56.5 ± 3.9,51.1 ± 3.5,46.7 ± 3.2,43.2 ± 3,40.3 ± 2.8,37.2 ± 2.5
CCCCC [pentane] + CCCC[N+]1(C)CCOCC1.N#C[C-](C#N)C#N,39.7 ± 2.7,35.5 ± 2.4,32.2 ± 2.2,29.8 ± 2,27.7 ± 1.9,26.2 ± 1.8
CCCOCCC [dipropyl ether] + CCCC[N+]1(C)CCOCC1.N#C[C-](C#N)C#N,16.4 ± 1.1,15.9 ± 1.1,15.4 ± 1.1,14.9 ± 1,14.4 ± 1,13.9 ± 1
CCC(C)O (stereo unspecified) [butan-2-ol] + CCCC[N+]1(C)CCOCC1.N#C[C-](C#N)C#N,2.05 ± 0.14,1.93 ± 0.13,1.81 ± 0.12,1.71 ± 0.11,1.64 ± 0.11,1.58 ± 0.1
CCO [ethanol] + CCCC[N+]1(C)CCOCC1.N#C[C-](C#N)C#N,1.26 ± 0.08,1.19 ± 0.08,1.12 ± 0.07,1.06 ± 0.07,1.01 ± 0.06,0.965 ± 0.061
C=CCCCCCC [oct-1-ene] + CCCC[N+]1(C)CCOCC1.N#C[C-](C#N)C#N,52.7 ± 3.6,49.1 ± 3.4,45.7 ± 3.1,43 ± 2.9,40.6 ± 2.8,38.1 ± 2.6
CCCCCCCCC [nonane] + CCCC[N+]1(C)CCOCC1.N#C[C-](C#N)C#N,187 ± 13,168 ± 12,151 ± 10,137 ± 9,126 ± 9,115 ± 8
CCOCC [diethyl ether] + CCCC[N+]1(C)CCOCC1.N#C[C-](C#N)C#N,5.39 ± 0.37,5.33 ± 0.36,5.27 ± 0.36,5.24 ± 0.36,5.21 ± 0.36,5.16 ± 0.35
CCCC(=O)OC [methyl butanoate] + CCCC[N+]1(C)CCOCC1.N#C[C-](C#N)C#N,2.42 ± 0.16,2.46 ± 0.17,2.49 ± 0.17,2.51 ± 0.17,2.54 ± 0.17,2.56 ± 0.17
